# Test results taken from US8497376B2, “Inhibitors of c-fms kinase” (Janssen Pharmaceutica N.V., priority 2007, dated 2013).
# Counter-ions that a name gives are not always drawn. Like-named read-outs stand apart in the source and are kept apart here.
# How the values were obtained:
# c-fms = c-fms (Homo sapiens (Human), UniProt P07333); experiment: Autophosphorylation fluorescence polarization competition immunoassay for c-fms inhibition; type: biochemical; conditions: 10 nM c-fms, 1 mM ATP; average of three independent measurements
# Description: The assay buffer used was 100 mM 4-(2-hydroxyethyl)piperazine1-ethanesulfonic acid (HEPES), pH 7.5, 1 mM 1,4-dithio-DL-threitol (DTT), 0.01% (v/v) Tween-20. Compounds were diluted in assay buffer containing 4% dimethylsulfoxide (DMSO) just prior to the assay. […] The kinase reaction was initiated by adding 2 μL of 5 mM ATP (Sigma) in assay buffer. The final concentrations in the assay were 10 nM c-fms, 1 mM ATP, 5 mM MgCl2, 2% DMSO. Control reactions were ran in each plate: in positive and negative control wells, assay buffer (made 4% in DMSO) was substituted for the compound; in addition, positive control wells received 1.2 μL of 50 mM ethylenediaminetetraaceticacid (EDTA). The plates were incubated at room temperature for 45 min. At the end of the incubation, the reaction was quenched with 1.2 μL of 50 mM EDTA (EDTA was not added to the positive control wells at this point; see above). Following a 5-min incubation, each well received 10 μL of a 1:1:3 mixture of anti-phosphotyrosine antibody, 10×, PTK green tracer, 10× (vortexed), FP dilution buffer, respectively (all from PanVera, cat. # P2837). The plate was covered, incubated for 30 min at room temperature and the fluorescence polarization was read on the Analyst. The instrument settings were: 485 nm excitation filter; 530 nm emission filter; Z height: middle of well; G factor: 0.93. […] The reported IC50 values are averages of three independent measurements.
# [1] = system: mouse bone-marrow derived macrophages; experiment: CSF-1-driven mouse bone-marrow derived macrophages assay (BrDU incorporation); type: cell-based; conditions: CSF-1-driven proliferation, 30 hrs culture
# Description: Macrophages were derived by culturing mouse bone marrow in alpha-MEM supplemented with 10% FCS and 50 ng/ml recombinant mouse CSF-1 in bacteriologic dishes. On the sixth day, macrophages were detached from dishes, washed, and resuspended to 0.05 million cells/ml in alpha-MEM containing 10% FCS. One hundred ul of cell suspension were distributed per well into 96 well culture plates. Wells were further supplemented with the addition of 50 ul media containing 15 ng/ml CSF-1, 3 uM Indomethacin, and 3× of a dilution series of test compounds. The cells were cultured for 30 hrs at 37 degrees and 5% CO2. During the final six hours, cultures were supplemented with an additional 30 ul of media containing a 1:500 dilution of bromodeoxyuridine (BrDU). At the end of the culture period, the plates were spun at 1000 RPM for 1 minute and 130 ul of media was removed with a pipet and replaced with 150 ul of fixative solution for 1 hour@room temperature. The fixative was then dispelled from the plates and the plates allowed to air dry. Incorporation of BrDU into the fixed, dried cells was quantified using a specific ELISA.
# Sequence of c-fms (P07333 20-972): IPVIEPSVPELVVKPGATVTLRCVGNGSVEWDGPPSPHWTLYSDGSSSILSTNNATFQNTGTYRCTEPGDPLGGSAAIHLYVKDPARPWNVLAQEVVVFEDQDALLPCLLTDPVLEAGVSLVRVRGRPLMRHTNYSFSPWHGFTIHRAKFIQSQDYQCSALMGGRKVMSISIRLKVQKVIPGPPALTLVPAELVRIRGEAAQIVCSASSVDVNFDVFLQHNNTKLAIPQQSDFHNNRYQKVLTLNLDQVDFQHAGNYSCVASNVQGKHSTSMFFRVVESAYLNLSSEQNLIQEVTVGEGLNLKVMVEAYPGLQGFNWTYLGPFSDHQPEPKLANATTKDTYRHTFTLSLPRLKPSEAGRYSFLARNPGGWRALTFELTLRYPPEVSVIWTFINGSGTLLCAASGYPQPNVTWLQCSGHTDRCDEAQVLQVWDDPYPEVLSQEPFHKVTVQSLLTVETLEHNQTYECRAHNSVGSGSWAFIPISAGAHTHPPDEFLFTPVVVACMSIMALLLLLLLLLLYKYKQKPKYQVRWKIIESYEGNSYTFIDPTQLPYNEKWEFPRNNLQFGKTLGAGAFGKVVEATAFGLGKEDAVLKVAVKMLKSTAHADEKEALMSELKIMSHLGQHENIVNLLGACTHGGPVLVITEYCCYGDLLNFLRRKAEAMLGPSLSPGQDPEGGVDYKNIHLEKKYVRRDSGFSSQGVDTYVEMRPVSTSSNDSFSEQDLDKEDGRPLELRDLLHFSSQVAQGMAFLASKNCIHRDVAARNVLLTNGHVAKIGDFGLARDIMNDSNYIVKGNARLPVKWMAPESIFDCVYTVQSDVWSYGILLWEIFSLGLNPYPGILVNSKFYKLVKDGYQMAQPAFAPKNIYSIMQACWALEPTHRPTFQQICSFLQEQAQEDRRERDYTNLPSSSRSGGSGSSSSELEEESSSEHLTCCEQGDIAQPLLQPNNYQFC
IC50 (c-fms) [nM],SMILES,"IC50 ([1]; Mus musculus, BMDM) [nM]",IC50 ([1]; read-out: BMDM IC50) [nM]
0.86,"COC[C@@]12C=C[C@@](COC)(C[C@](O)(c3ccc(NC(=O)c4nc(C#N)c[nH]4)c(C4=CCC(C)(C)CC4)c3)C1)O2 [Example 1, 4-Cyano-1H-imidazole-2-carboxylic acid[2-(4,4-dimethyl-cyclohex-1-enyl)-4-[(3-exo)-3-hydroxy-1,5-bis-methoxymethyl-8-oxa-bicyclo[3.2.1]oct-6-en-3-yl]-phenyl]-amide]",3.2,
,"CC1(C)CC=C(c2cc([C@]3(O)C[C@@]4(CO)C=C[C@@](CO)(C3)O4)ccc2NC(=O)c2nc(C#N)c[nH]2)CC1 [Example 2, 4-Cyano-1H-imidazole-2-carboxylic acid[2-(4,4-dimethyl-cyclohex-1-enyl)-4-((3-exo)-3-hydroxy-1,5-bis-hydroxymethyl-8-oxa-bicyclo[3.2.1]oct-6-en-3-yl)-phenyl]-amide]",37,
0.65,"CC1(C)CC=C(c2cc(C3=C[C@@]4(CO)C=C[C@@](CO)(C3)O4)ccc2NC(=O)c2nc(C#N)c[nH]2)CC1 [Example 3, 4-Cyano-1H-imidazole-2-carboxylic acid[4-(1,5-bis-hydroxymethyl-8-oxa-bicyclo[3.2.1]octa-2,6-dien-3-yl)-2-(4,4-dimethyl-cyclohex-1-enyl)-phenyl]-amide]",9.3,
0.72,"CC1(C)CC=C(c2cc([C@H]3C[C@]4(CO)CC[C@](CO)(C3)O4)ccc2NC(=O)c2nc(C#N)c[nH]2)CC1 [Example 4, 4-Cyano-1H-imidazole-2-carboxylic acid[4-[(3-exo)-1,5-bis-hydroxymethyl-8-oxa-bicyclo[3.2.1]oct-3-yl]-2-(4,4-dimethyl-cyclohex-1-enyl)-phenyl]-amide]",6.6,
0.47,"CC1(C)CC=C(c2cc([C@@H]3C[C@]4(CO)CC[C@](CO)(C3)O4)ccc2NC(=O)c2nc(C#N)c[nH]2)CC1 [Example 5, 4-Cyano-1H-imidazole-2-carboxylic acid[4-[(3-endo)-1,5-bis-hydroxymethyl-8-oxa-bicyclo[3.2.1]oct-3-yl]-2-(4,4-dimethyl-cyclohex-1-enyl)-phenyl]-amide]",4.7,
2.7,"COC[C@@]12CC[C@@](COC)(C[C@@H](c3ccc(NC(=O)c4nc(C#N)c[nH]4)c(C4=CCC(C)(C)CC4)c3)C1)O2 [Example 6, 4-Cyano-1H-imidazole-2-carboxylic acid[4-[(3-endo)-1,5-bis-methoxymethyl-8-oxa-bicyclo[3.2.1]oct-3-yl]-2-(4,4-dimethyl-cyclohex-1-enyl)-phenyl]-amide]",5,
2,"COC[C@@]12CC[C@@](COC)(C[C@H](c3ccc(NC(=O)c4nc(C#N)c[nH]4)c(C4=CCC(C)(C)CC4)c3)C1)O2 [Example 7, 4-Cyano-1H-imidazole-2-carboxylic acid[4-((3-exo)-1,5-bis-methoxymethyl-8-oxa-bicyclo[3.2.1]oct-3-yl)-2-(4,4-dimethyl-cyclohex-1-enyl)-phenyl]-amide]",3.3,
0.42,"CC1(C)CC=C(c2cc([C@@]3(O)C[C@]4(CO)CC[C@](CO)(C3)O4)ccc2NC(=O)c2nc(C#N)c[nH]2)CC1 [Example 8, 4-Cyano-1H-imidazole-2-carboxylic acid[2-(4,4-dimethyl-cyclohex-1-enyl)-4-[(3-exo)-3-hydroxy-1,5-bis-hydroxymethyl-8-oxa-bicyclo[3.2.1]oct-3-yl]-phenyl]-amide]",41,
1.1,"CC1(C)CC=C(c2cc([C@@]3(O)C[C@]4(C)C=C[C@](C)(C3)O4)ccc2NC(=O)c2nc(C#N)c[nH]2)CC1 [Example 9, 4-Cyano-1H-imidazole-2-carboxylic acid[2-(4,4-dimethyl-cyclohex-1-enyl)-4-((3-exo)-3-hydroxy-1,5-dimethyl-8-oxa-bicyclo[3.2.1]oct-6-en-3-yl)-phenyl]-amide]",4.8,
1.8,"CC1(C)CC=C(c2cc([C@@]3(O)C[C@@]4(C)O[C@@](C)(C3)[C@@H]3OC(C)(C)O[C@@H]34)ccc2NC(=O)c2nc(C#N)c[nH]2)CC1 [Example 11, 4-Cyano-1H-imidazole-2-carboxylic acid[2-(4,4-dimethyl-cyclohex-1-enyl)-4-[(3-exo)-3-hydroxy-1,5-dimethyl-6-exo,7-exo-(dimethylmethylenedioxy)-bicyclo[3.2.1]oct-3-yl]-phenyl]-amide]",2.5,
0.66,CC1(C)CC=C(c2cc([C@@]3(O)C[C@@]4(C)O[C@@](C)(C3)[C@H](O)[C@@H]4O)ccc2NC(=O)c2nc(C#N)c[nH]2)CC1 [Example 12],36,
0.81,"CC1(C)CC=C(c2cc([C@@H]3C[C@@]4(C)O[C@@](C)(C3)[C@H](O)[C@@H]4O)ccc2NC(=O)c2nc(C#N)c[nH]2)CC1 [Example 13, 4-Cyano-1H-imidazole-2-carboxylic acid[4-(3-endo)-(6-exo,7-exo-dihydroxy-1,5-dimethyl-8-oxa-bicyclo[3.2.1]oct-3-yl)-2-(4,4-dimethyl-cyclohex-1-enyl)-phenyl]-amide]",2.9,
1.4,"CC1(C)CC(c2ccc(NC(=O)c3nc(C#N)c[nH]3)c(C3=CCCCC3)n2)CC(C)(C)O1 [Example 16, 4-Cyano-1H-imidazole-2-carboxylic acid[2-cyclohex-1-enyl-6-(2,2,6,6-tetramethyl-tetrahydro-pyran-4-yl)-pyridin-3-yl]-amide]",8.2,
4.6,"CC1(C)CC=C(c2nc([C@H]3C[C@@]4(C)O[C@@](C)(C3)[C@@H]3OC(C)(C)O[C@@H]34)ccc2NC(=O)c2nc(C#N)c[nH]2)CC1 [Example 17, 4-Cyano-1H-imidazole-2-carboxylic acid[6-[(3-exo)-6-exo,7-exo-(isopropylidinedioxy)-1,5-dimethyl-8-oxa-bicyclo[3.2.1]oct-3-yl]-2-(4,4-dimethyl-cyclohex-1-enyl)-pyridin-3-yl]-amide]",37,
0.72,"CC1(C)CC=C(c2nc(C3C[C@@]4(C)O[C@@](C)(C3)[C@H](O)[C@@H]4O)ccc2NC(=O)c2nc(C#N)c[nH]2)CC1 (stereo partly drawn) [Example 18, 4-Cyano-1H-imidazole-2-carboxylic acid[6-[(3-exo)-(6-exo,7-exo-dihydroxy-1,5-dimethyl-8-oxa-bicyclo[3.2.1]oct-3-yl)-2-(4,4-dimethyl-cyclohex-1-enyl)-pyridin-3-yl]-amidetrifluoroacetic acid saft and 4-Cyano-1H-imidazole-2-carboxylic acid[6-[(3-endo)-(6-exo,7-exo-dihydroxy-1,5-dimethyl-8-oxa-bicyclo[3.2.1]oct-3-yl)-2-(4,4-dimethyl-cyclohex-1-enyl)-pyridin-3-yl]-amidetrifluoroacetic acid salt]",10,
99,"C[C@@H]1C2(C)C=C[C@@](C)(O2)[C@H](C)[C@@]1(O)c1ccc(NC(=O)c2nc(C#N)c[nH]2)c(C2=CCC(C)(C)CC2)c1 [Example 30, 4-Cyano-N-(2-(4,4dimethylcyclohex-1-enyl)-4-[(3-exo)-3-hydroxy-(2-endo,4-endo-dimethyl)-1,5-dimethyl-8-oxabicyclo[3.2.1]oct-6-en-3-yl)phenyl)-1H-imidazole-2-carboxamide]",,

SMILES,IC50 (c-fms) [nM],"IC50 ([1]; Mus musculus, BMDM) [nM]",IC50 ([1]; read-out: BMDM IC50) [nM]
"COC(=O)N1[C@@]2(C)C=C[C@]1(C)C[C@@](O)(c1ccc(NC(=O)c3nc(C#N)c[nH]3)c(C3=CCC(C)(C)CC3)c1)C2 [Example 10, 3-(3-exo)-[4-[(4-Cyano-1H-imidazole-2-carbonyl)-amino]-3-(4,4dimethyl-cyclohex-1-enyl)-phenyl]-(3-exo)-3-hydroxy-1,5-dimethyl-8-aza-bicyclo[3.2.1]oct-6-ene-8-carboxylic acid methyl ester]",3.5,40,
"CC1(C)CC=C(c2cc(C3C[C@](C)(CO)O[C@](C)(CO)C3)ccc2NC(=O)c2ncc(C#N)[nH]2)CC1 (stereo partly drawn) [Example 14, 4-Cyano-1H-imidazole-2-carboxylic acid[4-cis-(2-cis,6-cis-bis-hydroxymethyl-2,6-dimethyl-tetrahydro-pyran-4-yl)-2-(4,4-dimethyl-cyclohex-1-enyl)-phenyl]-amide (A) and 4-Cyano-1H-imidazole-2-carboxylic acid[4-trans-(2-cis,6-cis-bis-hydroxymethyl-2,6-dimethyl-tetrahydro-pyran-4-yl)-2-(4,4dimethyl-cyclohex-1-enyl)-phenyl]-amide (B)]",1.1,,4.7
